From patent US6403597B1, “Administration of phosphodiesterase inhibitors for the treatment of premature ejaculation” (Vivus, Inc., priority 1997, dated 2002) come the findings set out here.

Data set [1] deals with heterosexual men suffering from primary premature ejaculation. As to conditions: male, human, in vivo, 4 weeks; for No. patients with side effects / patients with side effects (%): po. As for the experimental part: (§1) A double-blind randomized crossover study was performed with 31 heterosexual men suffering from primary premature ejaculation, defined for the purpose of the study as an intravaginal ejaculation latency time (IVELT) of less than 2 minutes. Exclusion criteria included the following: (a) history of a psychiatric disorder; (b) current physical illness; (c) previous surgery or drug therapy with an active agent known to affect sexual function; (d) current substance abuse; (e) patients with secondary premature ejaculation combined with erectile dysfunction. All patients were asked not to use condoms or topical penile applications.
(§2) Treatment phases comprised five four-week consecutive treatment periods, each separated by a two-week washout period. […] The patients were randomly assigned to receive clomipramine hydrocloride (25 mg), sertraline hydrochloride (50 mg), paroxetine hydrochloride (20 mg), or sildenafil citrate (50 mg), or instructed to use the pause-squeeze technique developed by Masters and Johnson (Masters and Johnson, Human Sexual Inadequacy, Little, Brown & Company, Boston, Mass., 1970). The drugs were administered as needed 3 to 5 hours before planned intercourse and not more than twice a week. The pause-squeeze technique was used during intercourse. Each patient was randomly assigned to receive any of the available treatments as the first treatment and a sequence of treatment regimens. The assignment was unknown by the patient. Subjects were asked to complete a questionnaire regarding intravaginal ejaculation latency time of the last two consecutive experiences of intercourse, frequency of intercourse and possible side effects. The first nine items of the sexual satisfaction questionnaire designed by Althof et al. (Althof et al.(1999), “EDITS: Development of Questionnaires for Evaluating Satisfaction with Treatment for Erectile Dysfunction,” Urology 53:[…]) was used to measure the degree of sexual satisfaction, with higher scores indicating greater satisfaction. All measurements were obtained before treatment, after each treatment and after each washout period. Twenty healthy men who reported a sexual history free of symptoms of premature ejaculation served as a control group.
(§3) Statistical analysis: The variables in this study were statistically processed using the SPSS program for MicroSoft Windows®, standard version, release 8.0. The data were subjected to the Kolmogorov-Smirnov one-sample test, to test for normal distribution. […] Nonparametric statistical tests were used to assess differences in the measurements. Friedman's two-way analysis of variance was used for comparison between all the treatment periods. Wilcoxon signed rank test was used for evaluation of measures between baseline and after each treatment and also between every two treatment periods. The relationship between parameters was quantified by using the Spearman rank correlation coefficient. Chi-square and Fisher exact tests were used for comparison of the incidence of side effects among different treatments. Student's t-test and Chi-square test were used for comparison between the study group and control group. A two-tailed P-value <0.05 was considered significant.

For data set [2] the test system is unchanged. Description: Double-blind randomized crossover study of orally administered active agents in treating premature ejaculation (efficacy measures). Type of data set: in vivo. Set-up: Anxiety score, Median: scale not given here. As to conditions: for comparison between treatments in ejaculation latency time and sexual satisfaction score, in words: Wilcoxon signed rank test; for IVELT, Range / Anxiety score, Range: after four-week as-needed oral treatment; for IVELT, Range: baseline range 0.5-1.5; for Anxiety score, Range: baseline range 5-25; for Anxiety score, Median / Sexual satisfaction score, Median / Sexual satisfaction score, Range: after four-week treatment; for Anxiety score, Median: oral, as needed 3 to 5 hours before intercourse, clomipramine 25 mg, sertraline 50 mg, paroxetine 20 mg, sildenafil citrate 50 mg, baseline median 12; for median intravaginal ejaculation latency time: after four-week treatments, pretreatment median 1 minutes, all P<0.0001; for Sexual satisfaction score, Median / Sexual satisfaction score, Range: first nine items of EDITS questionnaire; for Sexual satisfaction score, Median: higher scores = greater satisfaction; for IVELT, Median: intravaginal ejaculation latency time after four-week as-needed oral treatment, baseline median 1; for delay of intravaginal ejaculation latency time, in words: treatment on an as needed basis; for IVELT during washout periods, Median / IVELT during washout periods, Range: two-week washout period after the treatment. The method, then:
as §1, §2, §3

In the case of `CN(C)CCCN1c2ccccc2CCc2ccc(Cl)cc21` [Clomipramine, clomipramine], in data set [1], the “Side effects (no.): drowsiness” value was determined as 1, the “Side effects (no.): dry mouth” value is reported as 3, the “Side effects (no.): nausea” value is given as 1 and the “Side effects (no.): sleepiness” value turned out to be 2. Also, in data set [1], the “No. patients with side effects” value amounted to 7 and the “patients with side effects (%)” value turned out to be 25%. Moreover, in data set [2], the “comparison between treatments in ejaculation latency time and sexual satisfaction score, in words” value (from here on “comparison between treatments”) is given as “more or less equivalent to each other”; the “IVELT, Range” value was “(1-8) min”; the “Anxiety score, Range” value was “(4-22)”; the “Anxiety score, Median” value turned out to be 11. Moreover, in data set [2], the “median intravaginal ejaculation latency time” value is 4 min; the “Sexual satisfaction score, Median” value came out at 11; the “Sexual satisfaction score, Range” value is “(0-25)”; the “IVELT, Median” value came to 4 min. Further, in data set [2], the “delay of intravaginal ejaculation latency time, in words” value (“delay” for short) was “statistically significant and clinically relevant delay”; the “IVELT during washout periods, Median” value is listed as 1 min; the “IVELT during washout periods, Range” value is “(0.5-1.5) min”. For the same compound, the “patients with prolongation of IVELT (%)” value in data set [2] (of 31 men) turned out to be 71%.

Regarding `Fc1ccc([C@@H]2CCNC[C@H]2COc2ccc3c(c2)OCO3)cc1` [Paroxetine, paroxetine], in data set [1], the “Side effects (no.): dry mouth” value turned out to be 2, the “Side effects (no.): nausea” value is 1, the “Side effects (no.): yawning” value is listed as 2 and the “No. patients with side effects” value worked out at 5. In addition, the “patients with side effects (%)” value in data set [1] is given as 17.2%. In addition, in data set [2], the “comparison between treatments” value is “superior to the pause-squeeze technique”; the “IVELT, Range” value is reported as “(2-10) min”; the “Anxiety score, Range” value is on record as “(5-23)”; the “Anxiety score, Median” value worked out at 9. For the same compound, in data set [2], the “median intravaginal ejaculation latency time” value is 4 min; the “Sexual satisfaction score, Median” value was 12; the “Sexual satisfaction score, Range” value is reported as “(0-29)”; the “IVELT, Median” value worked out at 4 min. In data set [2], the “delay” value is “statistically significant and clinically relevant delay”; the “IVELT during washout periods, Median” value is 1 min; the “IVELT during washout periods, Range” value is listed as “(0.5-2) min”. Further, in data set [2] (listed as paroxetine), the “comparison between treatments” value is listed as “more or less equivalent to each other”. For the same compound, the “patients with prolongation of IVELT (%)” value in data set [2] (of 31 men) is 80.6%.

For `CN[C@H]1CC[C@@H](c2ccc(Cl)c(Cl)c2)c2ccccc21` [Sertraline, sertraline], in data set [1], the “Side effects (no.): anorexia” value was 1, the “Side effects (no.): drowsiness” value was 1, the “Side effects (no.): nausea” value amounted to 1 and the “No. patients with side effects” value is on record as 3. Further, the “patients with side effects (%)” value in data set [1] came out at 10.3%. In data set [2], the “comparison between treatments” value is reported as “more or less equivalent to each other”; the “IVELT, Range” value was “(1-10) min”; the “Anxiety score, Range” value is recorded as “(5-22)”; the “Anxiety score, Median” value is listed as 11. For the same compound, in data set [2], the “median intravaginal ejaculation latency time” value came out at 3 min; the “Sexual satisfaction score, Median” value worked out at 10; the “Sexual satisfaction score, Range” value is “(0-31)”; the “IVELT, Median” value was determined as 3 min. Further, in data set [2], the “delay” value was “statistically significant and clinically relevant delay”; the “IVELT during washout periods, Median” value is on record as 1 min; the “IVELT during washout periods, Range” value was “(0.5-2) min”. Also, in data set [2] (of 31 men), the “patients with prolongation of IVELT (%)” value worked out at 71.2%.

Consider `CCCc1nn(C)c2c(=O)[nH]c(-c3cc(S(=O)(=O)N4CCN(C)CC4)ccc3OCC)nc12` [Sildenafil, 5-[2-ethoxy-5-(4-methyl-1-piperazinylsulphonyl)phenyl]-1-methyl-3-n-propyl-1,6-dihydro-7H-pyrazolo[4,3-dipyrimidin-7-one]], for which, in data set [1], the “Side effects (no.): flushing” value is 2, the “Side effects (no.): headache” value came to 2, the “Side effects (no.): nasal congestion” value was found to be 1 and the “No. patients with side effects” value amounted to 5. Besides, in data set [1], the “patients with side effects (%)” value amounted to 17.9%. Further, in data set [2], the “IVELT, Range” value is given as “(5-30) min”; the “Anxiety score, Range” value is “(4-15)”; the “Anxiety score, Median” value is given as 8; the “median intravaginal ejaculation latency time” value was 15 min. Besides, in data set [2], the “Sexual satisfaction score, Median” value came to 30; the “Sexual satisfaction score, Range” value is “(17-34)”; the “IVELT, Median” value is reported as 15 min; the “delay” value was “statistically significant and clinically relevant delay”. In data set [2], the “IVELT during washout periods, Median” value was 1.75 min and the “IVELT during washout periods, Range” value is “(0.5-8) min”. The “median IVELT, median sexual satisfaction score and median IVELT during the washout period, according to Friedman's test, in words” value in data set [2] (comparison between all treatment periods) was “significant increase”. In addition, in data set [2] (in vivo), the “effectiveness in the treatment of premature ejaculation, in words” value is reported as “highly effective”. Further, in data set [2] (of 31 men), the “patients with prolongation of IVELT (%)” value is recorded as “over 90%” and the “patients with prolongation of IVELT (number of patients)” value was determined as 28 patients. Moreover, the “patients with prolongation of IVELT (%)” value in data set [2] (of 31 men, listed as sildenafil) came to 90.3%. In data set [2] (versus pretreatment), the “factor by which IVELT was increased, on average” value was 15.
